# Results as given in PubChem BioAssay AID2060488 (Molecular Pharmacology Branch, DTP, NCI, 2025).
# Tested on: 966289-007-R4-J1-PDC complex spheroid viability
# Assay: Anticancer human tumor 966289-007-R4-J1-PDC patient-derived pancreatic adenocarcinoma cell line growth inhibition [GQUAD]
# Conditions: for IC50: curve of first compound; for viability, T/C: stronger effect = lower value
# Source text: DNA G-quadruplex Stabilizer Agents in Combinations in Complex Spheroids
# A high-throughput screen of multi-cell type tumor spheroids was designed to identify active combinations of DNA G-quadruplex stabilizer agents and targeted small molecules. Complex spheroids include a stromal component modeled by human endothelial cells (HUVEC) and fibroblasts modeled by human mesenchymal stem cells (MSCs). The concentration ranges selected for each drug and investigational agent were based upon clinically achievable concentrations if the clinical Cmax of the agent was known.
# Compounds. The drugs and investigational agents: pidnarulex (CX-5461; NSC782164), APTO-253 (NSC789042), BRACO-19 (NSC847499), peposertib (NSC802822), ceralasertib (NSC780249), elimusertib (NSC800525), camonsertib (NSC841442), AZD-1390 (NSC803789), olaparib (NSC753686), talazoparib (NSC767125), ART-558 (NSC835418), sotorasib (NSC818433), MRTX-1133 (NSC836407), SN-38 (NSC673596), topotecan (NSC609699), etoposide (NSC141540), doxorubicin (NSC123127), gemcitabine (NSC613327), 5-fluorouracil (NSC19893), paclitaxel (NSC125973), vemurafenib (NSC761431), panobinostat (NSC761190), R-306465 (JNJ-16241199; NSC773264), adavosertib (NSC754352), TP-3654 (NSC805149), carboplatin (NSC241240), KSQ-4279 (NSC840948), and staurosporine (NSC755774) were obtained from the National Cancer Institute (NCI) Developmental Therapeutics Program Chemical Repository (34). The FDA-approved anticancer drug set is available from the NCI Developmental Therapeutics Program. […] The stock solutions were prepared in dimethyl sulfoxide (DMSO, Sigma-Aldrich, St. Louis, MO, cat. D2650) at 800-fold the tested concentration and stored at -70 degrees C prior to their use. All drugs and investigational agents were tested over a range starting from a high concentration at or near the clinical Cmax and decreasing in half-log increments. If the clinical Cmax for an agent had not been determined, the highest concentration tested was 10 microM.
# 2.3 Cell Culture. All cells were maintained in an incubator at 37 degrees C and 5% CO2 with 95% humidity. The PDC lines were cultured according to standard operating procedures established by the NCI PDMR. All PDCs were thawed and cultured in Matrigel-coated flasks prepared with a working solution of 1X Ham's F-12 nutrient mix, without supplementation (Invitrogen, cat. 11765054), 100 U/mL penicillin-streptomycin (Invitrogen, cat. 15140122), and 2.5% Matrigel (Corning Inc., cat. 354248) for the first three passages. The 857933-349-R-J2-PDC line was cultured in 6C/Colon 1B media, which includes advanced DMEM/F-12 (Thermo Fisher Scientific, cat. 12634028), 10 mM HEPES (Thermo Fisher Scientific, cat. 15630080), 1X GlutaMAX supplement (Thermo Fisher Scientific, cat. 35050061), 0.1 mg/mL primocin (InvivoGen, cat. ant-pm-2), 10% defined fetal bovine serum, heat inactivated (HyClone Laboratories Inc., cat. SH30070.03HI), 50% L-WRN conditioned media (ATCC, cat. CRL-3276), 1.25 mM N-Acetyl-L-cysteine (Sigma-Aldrich, cat. A9165), 10 mM nicotinamide (Sigma-Aldrich, cat. N0636), 1X B-27 supplement (Thermo Fisher Scientific, cat. 17504044), 1X N-2 supplement (Thermo Fisher Scientific, cat. 17502048), 10 microM Y-27632 dihydrochloride (Tocris Bioscience, cat. 1254), and 50 ng/mL human EGF recombinant protein (Thermo Fisher Scientific, cat. PHG0311). The 485176-168-R4-J1-PDC line was cultured in Panc media, which includes all 6C/Colon 1B media components plus 100 ng/mL human FGF-10 (Thermo Fisher Scientific, cat. 100-26), 500 nM SB-431542 (Selleckchem, cat. S1067), and gastrin (Tocris, cat. 3006).
# […]
# [1] = second compound 0.0316 µM, first compound 0.0316 µM
# [2] = second compound 0.0316 µM, first compound 0.1 µM
# [3] = second compound 0.0316 µM, first compound 0.316 µM
# [4] = second compound 0.0316 µM, first compound 1 µM
# [5] = second compound 0.0316 µM, first compound 3.16 µM
# [6] = second compound 0.0316 µM, first compound 10 µM
# [7] = second compound 0.1 µM, first compound 0.0316 µM
# [8] = second compound 0.1 µM, first compound 0.1 µM
# [9] = second compound 0.1 µM, first compound 0.316 µM
# [10] = second compound 0.1 µM, first compound 1 µM
# [11] = second compound 0.1 µM, first compound 3.16 µM
# [12] = second compound 0.1 µM, first compound 10 µM
# [13] = second compound 0.316 µM, first compound 0.0316 µM
# [14] = second compound 0.316 µM, first compound 0.1 µM
# [15] = second compound 0.316 µM, first compound 0.316 µM
# [16] = second compound 0.316 µM, first compound 1 µM
# [17] = second compound 0.316 µM, first compound 3.16 µM
# [18] = second compound 0.316 µM, first compound 10 µM
# [19] = second compound 1 µM, first compound 0.0316 µM
# [20] = second compound 1 µM, first compound 0.1 µM
# [21] = second compound 1 µM, first compound 0.316 µM
# [22] = second compound 1 µM, first compound 1 µM
# [23] = second compound 1 µM, first compound 3.16 µM
# [24] = second compound 1 µM, first compound 10 µM
# [25] = second compound 3.16 µM, first compound 0.0316 µM
# [26] = second compound 3.16 µM, first compound 0.1 µM
# [27] = second compound 3.16 µM, first compound 0.316 µM
# [28] = second compound 3.16 µM, first compound 1 µM
# [29] = second compound 3.16 µM, first compound 3.16 µM
# [30] = second compound 3.16 µM, first compound 10 µM
# [31] = second compound 10 µM, first compound 0.0316 µM
# [32] = second compound 10 µM, first compound 0.1 µM
# [33] = second compound 10 µM, first compound 0.316 µM
# [34] = second compound 10 µM, first compound 1 µM
# [35] = second compound 10 µM, first compound 3.16 µM
# [36] = second compound 10 µM, first compound 10 µM
# 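Further: spheroids exposed to the agents for seven days before readout.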
# 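Wherever viability, T/C is given: percent viability relative to DMSO vehicle control wells taken as 100%.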
structure (smiles),measurement,setting,value
C=CCn1c(=O)c2cnc(Nc3ccc(N4CCN(C)CC4)cc3)nc2n1-c1cccc(C(C)(C)O)n1 + CN(C)c1ccc(Nc2c3ccc(NC(=O)CCN4CCCC4)cc3nc3cc(NC(=O)CCN4CCCC4)ccc23)cc1,IC50,second compound 0.0316 µM,1850 nM
same,IC50,second compound 0.1 µM,1880 nM
same,IC50,second compound 0.316 µM,1900 nM
same,IC50,second compound 1 µM,1900 nM
same,IC50,second compound 3.16 µM,1750 nM
same,IC50,second compound 10 µM,1320 nM
same,"viability, T/C",[1],104%
same,"viability, T/C",[2],103%
same,"viability, T/C",[3],113%
same,"viability, T/C",[4],99.8%
same,"viability, T/C",[5],6.96%
same,"viability, T/C",[6],2.02%
same,"viability, T/C",[7],99.6%
same,"viability, T/C",[8],103%
same,"viability, T/C",[9],111%
same,"viability, T/C",[10],101%
same,"viability, T/C",[11],8.04%
same,"viability, T/C",[12],1.98%
same,"viability, T/C",[13],96.8%
same,"viability, T/C",[14],97.2%
same,"viability, T/C",[15],110%
same,"viability, T/C",[16],102%
same,"viability, T/C",[17],8.92%
same,"viability, T/C",[18],1.93%
same,"viability, T/C",[19],95.3%
same,"viability, T/C",[20],108%
same,"viability, T/C",[21],113%
same,"viability, T/C",[22],102%
same,"viability, T/C",[23],8.33%
same,"viability, T/C",[24],2.74%
same,"viability, T/C",[25],104%
same,"viability, T/C",[26],104%
same,"viability, T/C",[27],112%
same,"viability, T/C",[28],88.2%
same,"viability, T/C",[29],9.59%
same,"viability, T/C",[30],4.27%
same,"viability, T/C",[31],105%
same,"viability, T/C",[32],102%
same,"viability, T/C",[33],101%
same,"viability, T/C",[34],64.6%
same,"viability, T/C",[35],3.41%
same,"viability, T/C",[36],1.03%
Cc1cccc(N(C)C(=O)C2C(O)CCN2c2nc(C)cc(C(F)(F)F)c2C#N)c1 (stereo unspecified) + CN(C)c1ccc(Nc2c3ccc(NC(=O)CCN4CCCC4)cc3nc3cc(NC(=O)CCN4CCCC4)ccc23)cc1,IC50,second compound 0.0316 µM,> 10000 nM
same,IC50,second compound 0.1 µM,> 10000 nM
same,IC50,second compound 0.316 µM,> 10000 nM
same,IC50,second compound 1 µM,> 10000 nM
same,IC50,second compound 3.16 µM,> 10000 nM
same,IC50,second compound 10 µM,1720 nM
same,"viability, T/C",[1],107%
same,"viability, T/C",[2],94.7%
same,"viability, T/C",[3],106%
same,"viability, T/C",[4],95.8%
same,"viability, T/C",[5],101%
same,"viability, T/C",[6],99.3%
same,"viability, T/C",[7],107%
same,"viability, T/C",[8],98.5%
same,"viability, T/C",[9],103%
same,"viability, T/C",[10],99.7%
same,"viability, T/C",[11],102%
same,"viability, T/C",[12],107%
same,"viability, T/C",[13],95.8%
same,"viability, T/C",[14],100%
same,"viability, T/C",[15],105%
same,"viability, T/C",[16],101%
same,"viability, T/C",[17],102%
same,"viability, T/C",[18],100%
same,"viability, T/C",[19],102%
same,"viability, T/C",[20],105%
same,"viability, T/C",[21],107%
same,"viability, T/C",[22],101%
same,"viability, T/C",[23],99.6%
same,"viability, T/C",[24],109%
same,"viability, T/C",[25],104%
same,"viability, T/C",[26],106%
same,"viability, T/C",[27],101%
same,"viability, T/C",[28],97.3%
same,"viability, T/C",[29],102%
same,"viability, T/C",[30],104%
same,"viability, T/C",[31],105%
same,"viability, T/C",[32],103%
same,"viability, T/C",[33],96.1%
same,"viability, T/C",[34],72.2%
same,"viability, T/C",[35],25.2%
same,"viability, T/C",[36],7.13%
Cc1cccc(N(C)C(=O)C2C(O)CCN2c2nc(C)cc(C(F)(F)F)c2C#N)c1 (stereo unspecified) + Cc1[nH]c2ccc(F)cc2c1-c1nc2c3cccnc3c3ncccc3c2[nH]1,IC50,second compound 0.0316 µM,> 10000 nM
same,IC50,second compound 0.1 µM,> 10000 nM
same,IC50,second compound 0.316 µM,> 10000 nM
same,IC50,second compound 1 µM,> 10000 nM
same,IC50,second compound 3.16 µM,> 10000 nM
same,IC50,second compound 10 µM,> 10000 nM
same,"viability, T/C",[1],109%
same,"viability, T/C",[2],90.5%
same,"viability, T/C",[3],108%
same,"viability, T/C",[4],90.6%
same,"viability, T/C",[5],106%
same,"viability, T/C",[6],104%
same,"viability, T/C",[7],109%
same,"viability, T/C",[8],98.6%
same,"viability, T/C",[9],97.2%
same,"viability, T/C",[10],101%
same,"viability, T/C",[11],106%
same,"viability, T/C",[12],103%
same,"viability, T/C",[13],97.6%
same,"viability, T/C",[14],104%
same,"viability, T/C",[15],98.1%
same,"viability, T/C",[16],104%
same,"viability, T/C",[17],99.7%
same,"viability, T/C",[18],106%
same,"viability, T/C",[19],102%
same,"viability, T/C",[20],96.8%
same,"viability, T/C",[21],98.7%
same,"viability, T/C",[22],106%
same,"viability, T/C",[23],97.2%
same,"viability, T/C",[24],110%
same,"viability, T/C",[25],104%
same,"viability, T/C",[26],104%
same,"viability, T/C",[27],110%
same,"viability, T/C",[28],107%
same,"viability, T/C",[29],113%
same,"viability, T/C",[30],114%
same,"viability, T/C",[31],107%
same,"viability, T/C",[32],102%
same,"viability, T/C",[33],110%
same,"viability, T/C",[34],104%
same,"viability, T/C",[35],103%
same,"viability, T/C",[36],113%
